From patent publication US8105796B2, “Regulation of expression of PI3Kβ protein in tumors” (Universita' Degli Studi di Torino, priority 2007, dated 2012)

Columns and labels:
[1] = system: wild-type (PI3Kβ^+/+/neuT) tumor derived mammary gland cancer cells; assay: Proliferation curves of cultured tumor derived mammary gland cancer cells; format: cell-based, mouse; conditions: wild-type tumor cells (FIG. 10)
Protocol: FIG. 10. Requirement of PI3Kβ for cell proliferation of tumor derived mammary gland cancer cell lines. Proliferation curves of cultured tumor cells of the two genotypes in the absence or presence of TGX-155 (10 μM) and TGX-221 (100 nM)p110β selective inhibitors. Statistical significance: wild-type cells vs all other conditions; other pairs of datasets: n.s.
Moreover, to further test if the protection against breast cancer development was intrinsic to the lack of the kinase activity, tumor cells from PI3Kβ^KR/KR and PI3Kβ^+/+ mice were cultured in the presence of p110β selective inhibitors, TGX-155 and TGX-221.

PI3Kβ^+/+ MEFs = assay: Proliferation curve of mouse embryonic fibroblasts (MEFs) with p110β inhibitors; format: cell-based
Protocol: FIG. 3. PI3Kβ^KR expression dosage inversely correlates with phenotype severity. a) MEFs were derived from normal (PI3Kβ^KR/KR(High)) or abnormal PI3Kβ^KR/KR (Low)) embryos and the expression level of the PI3Kβ^KR/KR protein was analyzed by SDS-PAGE and immunoblotting, using the indicated antibodies. b) analysis of p110β catalytic activity. Lipid kinase assay was performed on p110β immunoprecipitated from wild type (PI3Kβ^+/+) and PI3Kβ^KR/KR(High) MEFs. c) proliferation curve of mutant MEFs with high and low PI3Kβ^KR expression levels compared to that of wild-type MEFs with or without 100 nM TGX-221 treatment (TGX).
Since p110β is activated downstream growth factor receptors, and cell growth is the driving force during embryonic development, the present inventors analyzed cell proliferation of PI3Kβ^KR/KR(High), PI3Kβ^KR/KR(Low) and PI3Kβ^+/+ MEFs.

[2] = system: Akt/PKB phosphorylation in liver; assay: Insulin-stimulated Akt phosphorylation in liver of treated mice; format: in vivo, mouse
Protocol: FIG. 5. After insulin stimulation, Akt phosphorylation declines in PI3Kβ^KR/KR liver faster than controls. Phosphorylation of Erk1/2 and Akt (on Thr308 and Ser473) in livers of mice of the given genotype with and without TGX-155 treatment. Lower panel: quantification of Akt phosphorylation on Ser473 (n=5)
To test this hypothesis, Akt/PKB phosphorylation was tested in wild-type and mutant mice in tissues known to be particularly sensitive to insulin signaling like the liver.

Row | SMILES | proliferation of wild-type tumor cells ([1]; TGX-155 10 μM) | growth rate (cell proliferation) of MEFs (PI3Kβ^+/+ MEFs; PI3Kβ^+/+ MEFs treated with TGX-155, versus controls) | Akt phosphorylation after 5 minutes of insulin stimulation ([2]; liver of wild type mice treated with TGX-155, 5 minutes of insulin stimulation (FIG. 5)) | decline of Akt activation after insulin stimulation ([2]; liver, later time of insulin stimulation, versus untreated wild-type controls (FIG. 5)) | proliferation of wild-type tumor cells ([1]; TGX-221 100 nM) | growth rate (cell proliferation) of MEFs (PI3Kβ^+/+ MEFs; PI3Kβ^+/+ MEFs, 100 nM TGX-221, versus controls (FIG. 3c))
1 | Cc1cc(F)ccc1Oc1cccc2c(=O)cc(N3CCOCC3)[nH]c12 [TGX-155] | significant reduction in proliferation | growth rate comparable to that of the controls | no differences in Akt phosphorylation | declined significantly faster | – | –
2 | Cc1cc(C(C)Nc2ccccc2)c2nc(N3CCOCC3)cc(=O)n2c1 (stereo not drawn) [TGX-221] | – | – | – | – | significant reduction in proliferation | growth rate comparable to that of the controls
